In brackets after ≈: the same amount, converted by molar mass. Numbered stars: 1 amine (or outer) side, 2 acyl side, 3 side chain; on linkers, the order of the positions; unused ones are H or OH. Bridge positions count the residues as written; N and C are the ends. Peptide text beside a SMILES is read from it. I, II: the chains in the order shown. X2 = c1ccc([Si](O[*:1])(O[*:2])c2ccccc2)cc1
Key:
[1] = system: Adenokarzinom-Gewebe; assay: Effect against adenocarcinoma tissue, inhibition of metastasis
[2] = system: Hepatitis-Viren; assay: Antiviral effect; settings: in particular as vesicles holding antisense constructs
[3] = system: Lymphome; assay: Effect on lymphomas
[4] = system: Krebszellen; assay: Mean IC50 over all cancer cell lines; assay type: cell-based; settings: mean over cancer cell lines; read-out: IC50 Krebszellen (Durchschnitt ± SD)
Experimental: (§1) Die Silane 1, 5, 9, 10, 11, 13, 15, 16 wurden in Ethanol gelöst und in MTT Assays in einer anfänglichen Konzentration von 200 µg/ml (5 Lösungsschritte 200 - 12.5 µg/ml) verwendet. Die Platten wurde für eine Dauer.von 4 Tagen inkubiert und die Entwicklungsfähigkeit mithilfe des EZ4U Test bestimmt. Die IC50 Werte wurden ausgehend von Dosierungs-Reaktions-Linien berechnet Zelllinien: Colo 205 and HT29 - Kolonkarzinom; BxPC3 and MIAPaCa2 - Pankreaskrebs; CRO2B - karzinoid, A431 Epidermalkarzinom; normale Zellen: WI38 - humane embryonale Fibroblasten; NIH3T3 - mausartige Fibroblasten; IEC6 - mausartige Enterozyten.
(§2) Mittelwerte-IC50 für alle Krebs- oder normalen Zelllinien: […]

[5] = system: BxPC3 - Pankreaskrebs; assay: MTT assay / EZ4U test, 4 days; assay type: cell-based; settings: Homo sapiens, BXPC-3; 200 - 12.5 µg/ml, 4 Tage; read-out: IC50 BxPC3
Experimental: as §1

[6] = system: A431 Epidermalkarzinom; assay: MTT assay / EZ4U test, 4 days; assay type: cell-based; settings: Homo sapiens, A-431; 200 - 12.5 µg/ml, 4 Tage; read-out: IC50 A431
Experimental: as §1

[7] = system: CRO2B - karzinoid; assay: MTT assay / EZ4U test, 4 days; assay type: cell-based; settings: 200 - 12.5 µg/ml, 4 Tage; read-out: IC50 CR02B
Experimental: as §1

[8] = system: HT29 - Kolonkarzinom; assay: MTT assay / EZ4U test, 4 days; assay type: cell-based; settings: Homo sapiens, HT-29; 200 - 12.5 µg/ml, 4 Tage; read-out: IC50 HT29
Experimental: as §1

[9] = system: WI38 - humane embryonale Fibroblasten; assay: MTT assay / EZ4U test, 4 days; assay type: cell-based; settings: Homo sapiens, WI-38; 200 - 12.5 µg/ml, 4 Tage; read-out: IC50 WI38
Experimental: as §1

[10] = system: IEC6 - mausartige Enterozyten; assay: MTT assay / EZ4U test, 4 days; assay type: cell-based; settings: Rattus norvegicus, IEC-6; 200 - 12.5 µg/ml, 4 Tage; read-out: IC50 IEC6
Experimental: as §1

[11] = system: NIH3T3 - mausartige Fibroblasten; assay: MTT assay / EZ4U test, 4 days; assay type: cell-based; settings: Mus musculus, NIH3T3; 200 - 12.5 µg/ml, 4 Tage; read-out: IC50 NIH3T3
Experimental: as §1

[12] = system: MIAPaCa2 - Pankreaskrebs; assay: MTT assay / EZ4U test, 4 days; assay type: cell-based; settings: Homo sapiens, MIA PaCa-2; 200 - 12.5 µg/ml, 4 Tage; read-out: IC50 MlAPaCa2
Experimental: as §1

[13] = system: Colo 205 - Kolonkarzinom; assay: MTT assay / EZ4U test, 4 days; assay type: cell-based; settings: Homo sapiens, COLO 205; 200 - 12.5 µg/ml, 4 Tage; read-out: IC50 Colo205
Experimental: as §1

[14] = system: IEC6 mausartige Enterozyten; assay: subG1 apoptotic fraction, propidium iodide, flow cytometry; assay type: cell-based; settings: 50 µg/ml, 4 Tage
Experimental: (§3) Die Zellen (IEC6 mausartige Enterozyten; Panc1 Pankreaskrebszellen; Colo205 Kolonkarzinom) wurden mit 50 µg/ml Silanen inkubiert und nach 4-tägiger Aussetzung auf DNA eingefärbt (Propidiumiodid). Die SubG1 Zellteilung wurde mittels Durchflusscytometrie bestimmt.

[15] = system: Panc1 Pankreaskrebszellen; assay: as above; assay type: cell-based; settings: 50 µg/ml, 4 Tage
Experimental: as §3

[16] = system: Colo205 Kolonkarzinom; assay: as above; assay type: cell-based; settings: 50 µg/ml, 4 Tage
Experimental: as §3

[17] = system: Maus; assay: Pharmacological observation in the mouse (central, vegetative and toxic effects, acute toxicity); assay type: in vivo
Text: Pharmakologische Untersuchungen an der Maus
Die Verbindungen wurden an der Maus auf zentrale, vegetative und toxische Effekte geprüft. Durch systemische Einzelbeobachtungen sind neben der akuten Toxizität (orienberende letale Dosis, oLD) zentrale und vegetative Wirkungen der Testsubstanzen, insbesondere Effekte auf die Motorik und das Reaktionsvermögen, die Haut- und Rektaltemperatur sowie auf die Pupillenmotorik erfasst worden. Die getesteten Dosierungen betrugen 5 •10^-4, 1 • 10^-3 und 5 • 10^-3 mol/kg Körpergewicht Letale Wirkungen konnten bei keiner der Verbindungen beobachtet werden. Die oLD lag für Di(tetradecanoyloxy)dimethylsilan und Di(octadecanoyloxy)dimethylsilan unter 1 • 10^-3 mol/kg Körpergewicht für alle übrigen Verbindungen unter 5 • 10^-3 mollkg Körpergewicht.

[18] = system: Normale Zellen; assay: Mean IC50 over all normal cell lines; assay type: cell-based; settings: mean over normal cell lines; read-out: IC50 Normale Zellen (Durchschnitt ± SD)
Experimental: as §1, §2

[19] = system: Kälber-Aortenendothelzellinie BKEz-7; assay: tissue or blood; assay type: cell-based
Text: Prüfung auf zytotoxisches Potential an Kälber-Aortenendothelzellinie BKEz-7
Als Marker für eine zytotoxische Wirkung wird bei Zellen der charakterisierten Kälber-Aortenendothelzellinie BKEz-7 die Hemmkonzentration ermittelt, bei der eine 50%-ige Hemmung der Zellproliferation erfolgt (im Vergleich zu Kontrollkulturen ohne Zusatz eines Zellinhibitors). Die resultierende Reduzierung der Zellzahl um 50% wird als IC 50 ausgedrückt. Die getesteten Silanverbindungen wurden als Suspensionen auf die Kulturen gegeben und 48 Stunden bei 37°C inkubiert. Zusätzlich erfolgten morphologische Kontrollen und Vitalitätsbestimmungen mittels dem Neutralrot-Test. Mit Ausnahme des Di(dodecanoyloxy)dimethylsilans standen alle Ergebnisse der morphologischen Untersuchungen in guter Übereinstimmung. […]

[20] = system: BxPC3 (pankreatisches Adenokarzinom); assay: MTT test, triplicate, two-fold dilutions; assay type: cell-based; settings: Homo sapiens, BXPC-3; up to 500 µg/ml; read-out: IC50 BxPC3
Experimental: (§4) Die Silan wurden in Ethanol aufgelöst und in Zellkulturmedien in Konzentrationen von bis zu 500 µg/ml resuspendiert. Es wurden MTT Tests in dreifacher Ausführung durchgeführt, für welche doppelte Lösungen (7 Schritte) und colo205 (Kofon-Karzinom), BxPC3 (pankreatisches Adenokarzinom) sowie T47D (Brustkrebs) benutzt wurden.

[21] = system: colo205 (Kofon-Karzinom); assay: MTT test, triplicate, two-fold dilutions; assay type: cell-based; settings: Homo sapiens, COLO 205; up to 500 µg/ml; read-out: IC50 Colo205
Experimental: as §4

[22] = system: T47D (Brustkrebs); assay: MTT test, triplicate, two-fold dilutions; assay type: cell-based; settings: Homo sapiens, T47D; up to 500 µg/ml; read-out: IC50 T47D
Experimental: as §4

[23] = system: Basalzellkarzinome; assay: Effect on basal cell carcinomas

In the case of `CCCCCCCCCCCCC(=O)O[Si](OC(=O)CCCCCCCCCCCC)(C(C)C)C(C)C` [Di(tridecanoyloxy)diisopropylsilan], the “Wirkung gegen Adenokarzinom-Gewebe, insbesondere inhibierende Wirkung auf die Metastasierung” value [1] is reported as “haben eine Wirkung”.
Diphenyl bis(hexaalanyl)silylester was tested, and the “Wirkung gegen Hepatitis-Viren” value [2] was “zeigen eine Wirkung” and the “Wirkung auf Lymphome” value [3] was “zeigen eine Wirkung”.
For `C[C@H](N)C(=O)N[C@@H](C)C(=O)N[C@@H](C)C(=O)N[C@@H](C)C(=O)N[C@@H](C)C(=O)N[C@@H](C)C(=O)N[C@@H](C)C(=O)O[Si](OC(=O)[C@H](C)NC(=O)[C@H](C)NC(=O)[C@H](C)NC(=O)[C@H](C)NC(=O)[C@H](C)NC(=O)[C@H](C)NC(=O)[C@H](C)N)(c1ccccc1)c1ccccc1` [Diphenyl bis(heptaalanyl)silylester] (I: H-AAAAAAA / II: H-AAAAAAA; linker I:C-II:C via X2), the “Wirkung gegen Hepatitis-Viren” value [2] was “zeigen eine Wirkung” and the “Wirkung auf Lymphome” value [3] was “zeigen eine Wirkung”.
In the case of `C[C@H](N)C(=O)N[C@@H](C)C(=O)N[C@@H](C)C(=O)N[C@@H](C)C(=O)O[Si](OC(=O)[C@H](C)NC(=O)[C@H](C)NC(=O)[C@H](C)NC(=O)[C@H](C)N)(c1ccccc1)c1ccccc1` [Diphenyl bis(tetraalanyl)silylester], the “Wirkung gegen Hepatitis-Viren” value [2] is reported as “zeigen eine Wirkung” and the “Wirkung auf Lymphome” value [3] is reported as “zeigen eine Wirkung”.
In the case of `C[C@H](N)C(=O)N[C@@H](C)C(=O)N[C@@H](C)C(=O)N[C@@H](C)C(=O)N[C@@H](C)C(=O)N[C@@H](C)C(=O)N[C@@H](C)C(=O)N[C@@H](C)C(=O)O[Si](OC(=O)[C@H](C)NC(=O)[C@H](C)NC(=O)[C@H](C)NC(=O)[C@H](C)NC(=O)[C@H](C)NC(=O)[C@H](C)NC(=O)[C@H](C)NC(=O)[C@H](C)N)(c1ccccc1)c1ccccc1` [Diphenyl bis(octaalanyl)silylester] (I: H-AAAAAAAA / II: H-AAAAAAAA; linker I:C-II:C via X2), the “Wirkung gegen Hepatitis-Viren” value [2] is reported as “zeigen eine Wirkung” and the “Wirkung auf Lymphome” value [3] is reported as “zeigen eine Wirkung”.
With `CCCCCCCCCCCCCC(=O)O[Si](OC(=O)CCCCCCCCCCCCC)(c1ccccc1)c1ccccc1` [Si15, Di (tetradecanoyloxy) diphenylsilan] the IC50 [4] was 30 µg/mL (≈ 47.1 µM), the IC50 [5] was 33.8 µg/mL (≈ 53.1 µM) and the IC50 [6] was 34.5 µg/mL (≈ 54.2 µM). The IC50 [7] was 12.5 µg/mL (≈ 19.6 µM), the IC50 [8] was 39.4 µg/mL (≈ 61.8 µM) and the IC50 [9] was 35 µg/mL (≈ 54.9 µM). It also gave an IC50 [10] of 19.1 µg/mL (≈ 30 µM), an IC50 [11] of 29.4 µg/mL (≈ 46.2 µM) and an IC50 [12] of 37 µg/mL (≈ 58.1 µM). For the same molecule, the IC50 [13] was 30 µg/mL (≈ 47.1 µM), the “subG1 apoptotische Zellteilung IEC6” value [14] was 2,9 ± 0,42 and the “subG1 apoptotische Zellteilung Panc1” value [15] was 48,6 ± 0,6. The “subG1 apoptotische Zellteilung Colo205” value [16] was 37,6 ± 0,21, the “zentrale, vegetative und toxische Effekte (Verhaltensänderungen)” value (“zentrale … (Verhaltensänderungen)” for short) ([17]; 1•10^-3 mol/kg) was “Ataxie, Hyper-aktivität” and the “zentrale … (Verhaltensänderungen)” value ([17]; 5•10^-3 mol/kg) was “schwache Ataxie, Piloerektion”. The “zentrale … (Verhaltensänderungen)” value ([17]; 5•10^-4 mol/kg) was “keine Verhaltensänderungen”, the IC50 [18] was 27.8 µg/mL (≈ 43.6 µM) and the “Bedenkliche Toxizität” value [19] was “-”. The IC50 ([19]; suspensions, 48 Stunden bei 37°C) was 46 µM, the IC50 [20] was 15 µg/mL (≈ 23.5 µM) and the IC50 [21] was 62 µg/mL (≈ 97.3 µM). The IC50 [22] was 15 µg/mL (≈ 23.5 µM) and the “Wirkung auf Basalzellkarzinome” value [23] was “zeigen eine Wirkung”.
